In PMC11483914, “Appendage- and Scaffold-Diverse Electrophilic and Photoreactive Probes for Integrated Phenotypic Screening–Target Identification Campaigns via a Minimalist Bifunctional Isocyanide” (ACS Omega, 2024):

Assays:
[1] = molecular target: T1, protein disulfide isomerase A1 (PDIA1) (Homo sapiens, UniProt P07237); experiment: in-gel fluorescence after CuAAC, SKOV-3 wildtype versus PDIA1 knockout and HEK293T overexpression; type: cell-based; conditions: 500 nM, 1 h
T1 construct: gene P4HB; full-length PDIA1 overexpressed in HEK293T (anti-myc detected) for labelling, also endogenous
T1 sequence (P07237 18-508): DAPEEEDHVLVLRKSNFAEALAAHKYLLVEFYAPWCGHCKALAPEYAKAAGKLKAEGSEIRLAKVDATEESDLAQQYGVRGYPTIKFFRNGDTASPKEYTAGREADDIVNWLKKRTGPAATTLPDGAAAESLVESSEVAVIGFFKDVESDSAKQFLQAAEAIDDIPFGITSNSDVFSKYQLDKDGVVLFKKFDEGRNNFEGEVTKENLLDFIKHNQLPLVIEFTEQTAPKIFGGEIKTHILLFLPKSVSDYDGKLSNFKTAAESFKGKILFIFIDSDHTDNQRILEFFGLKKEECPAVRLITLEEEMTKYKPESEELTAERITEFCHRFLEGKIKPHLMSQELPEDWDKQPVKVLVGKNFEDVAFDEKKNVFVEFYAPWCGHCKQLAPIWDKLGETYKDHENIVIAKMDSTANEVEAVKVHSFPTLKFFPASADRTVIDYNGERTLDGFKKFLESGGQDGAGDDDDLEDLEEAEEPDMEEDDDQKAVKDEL

[2] = molecular target: T1, protein disulfide isomerase A1 (PDIA1); experiment: insulin reductase (insulin aggregation) assay; type: biochemical; conditions: covalent; a-site C53

C#CCN(CCNC(=O)C1(N(CC=C)C(=O)c2ccc(Cl)cc2)CCN(Cc2ccccc2)CC1)C(=O)CCl [4a, FFSMP 4a]
covalent labelling [1]: confirming PDIA1 as a predominant protein target of biologically active FFSMP 4a | inhibition of PDIA1 activity [2]: FFSMP 4a was shown to inhibit PDIA1 at low μM concentrations
